Where two headings read alike, the source gives them in different places.
Tests used:
Type in all cases: cell-based
[1] = system: non-small-cell lung cancer cells (Calu1); test: In vitro potency (CellTiter-Glo, 96 h) on Calu1; details: read-out: Calu1 IC50
Description: (§1) In vitro potency was assessed on multiple cancer cell lines. All cell lines were authenticated by STR profiling at IDEXX Bioresearch and cultured for no more than 2 months after resuscitation. Cells cultured in log-phase growth were seeded for 24 hours in 96-well plates containing […] RPMI 1640 supplemented with 20% FBS. Serial dilutions of antibody-drug conjugates in cell culture media were prepared at 4x working concentrations, and 50 μL of each dilution was added to the 96-well plates. Following addition of test articles, cells were incubated with test articles for 4 days at […]. After 96 hours, growth inhibition was assessed by CellTiterGlo® (Promega, Madison, WI) and luminescence was measured on a plate reader.
(§2) Cell viability was determined by CellTiter-Glo staining after 96h exposure to ADC. ND=Not Determined. In the following tables, “Ex_” refers to a drug linker number. For example, “Ag4-Ex_4a” refers to a conjugate of an Ag4 antibody with drug linker 4a.

[2] = system: anaplastic large cell lymphoma cells (DELBVR); test: In vitro potency (CellTiter-Glo, 96 h) on DELBVR; details: read-out: DELBVR IC50
Description: as §1, §2

[3] = system: renal carcinoma cells (786-O); test: In vitro potency (CellTiter-Glo, 96 h) on 786-O; details: read-out: 786-O IC50
Description: as §1, §2

melanoma cells (A2058) = test: In vitro potency (CellTiter-Glo, 96 h) on A2058; details: read-out: A2058 IC50
Description: as §1, §2

[4] = system: anaplastic large cell lymphoma cells (DEL); test: In vitro potency (CellTiter-Glo, 96 h) on DEL; details: 96 h, read-out: DEL IC50
Description: as §1, §2

[5] = system: pancreatic cancer cells (BxPC3); test: In vitro potency (CellTiter-Glo, 96 h) on BxPC3; details: read-out: BxPC3 IC50
Description: as §1, §2

[6] = system: acute myeloid leukemia cells (MOLM-13); test: In vitro potency (CellTiter-Glo, 96 h) on MOLM-13; details: read-out: MOLM-13 IC50
Description: as §1, §2

[7] = system: B-lymphocyte cancer cells (SU-DHL4); test: In vitro potency (CellTiter-Glo, 96 h) on SU-DHL4; details: read-out: SU-DHL-4 IC50
Description: as §1, §2

[8] = system: Hodgkin's lymphoma cells (L540cy); test: In vitro potency (CellTiter-Glo, 96 h) on L540cy; details: read-out: L540cy IC50
Description: as §1, §2

[9] = In vitro potency (CellTiter-Glo, 96 h) on Ls174T; details: read-out: Ls174T IC50
Description: as §1, §2

[10] = system: anaplastic large cell lymphoma cells (Karpas299); test: In vitro potency (CellTiter-Glo, 96 h) on Karpas299; details: read-out: Karpas299 IC50
Description: as §1, §2

[11] = system: breast cancer cells (MDA-MB-231); test: In vitro potency (CellTiter-Glo, 96 h) on MDA-MB-231; details: read-out: MDAMB 231 IC50
Description: as §1, §2

[12] = Homo sapiens, Calu-1, 96 h, CPT free drugs, CellTiter-Glo after 96 h exposure
[13] = 96 h, CPT free drugs, CellTiter-Glo after 96 h exposure
[14] = Homo sapiens, 786-0, 96 h, CPT free drugs, CellTiter-Glo after 96 h exposure
[15] = Homo sapiens, A2058, 96 h, CPT free drugs, CellTiter-Glo after 96 h exposure
[16] = CPT free drugs, CellTiter-Glo after 96 h exposure
[17] = Homo sapiens, MOLM-13, 96 h, CPT free drugs, CellTiter-Glo after 96 h exposure
[18] = Homo sapiens, SU-DHL-4, 96 h, CPT free drugs, CellTiter-Glo after 96 h exposure
[19] = L540cy, 96 h, CPT free drugs, CellTiter-Glo after 96 h exposure
[20] = Homo sapiens, LS174T, CPT free drugs, CellTiter-Glo after 96 h exposure
[21] = Homo sapiens, KARPAS-299, 96 h, CPT free drugs, CellTiter-Glo after 96 h exposure
[22] = Homo sapiens, MDA-MB-231, 96 h, CPT free drugs, CellTiter-Glo after 96 h exposure

Row | Structure (SMILES) | IC50 [1, 12] [nM] | IC50 [2, 13] [nM] | IC50 (melanoma cells (A2058); [15]) [nM] | IC50 [4, 16] [nM] | IC50 [6, 17] [nM] | IC50 [7, 18] [nM] | IC50 [8, 19] [nM] | IC50 [9, 20] [nM] | IC50 [10, 21] [nM] | IC50 [11, 22] [nM] | IC50 ([1]; Homo sapiens, Calu-1, 96 h) [nM] | IC50 ([3]; Homo sapiens, 786-0, 96 h) [nM] | IC50 (melanoma cells (A2058); Homo sapiens, A2058, 96 h) [nM] | IC50 [4] [nM] | IC50 ([6]; Homo sapiens, MOLM-13, 96 h) [nM] | IC50 ([7]; Homo sapiens, SU-DHL-4, 96 h) [nM] | IC50 ([8]; L540cy, 96 h) [nM] | IC50 ([9]; Homo sapiens, LS174T, 96 h) [nM] | IC50 ([10]; Homo sapiens, KARPAS-299, 96 h) [nM] | IC50 ([11]; Homo sapiens, MDA-MB-231, 96 h) [nM] | other results
1 | CC[C@@]1(O)C(=O)OCc2c1cc1n(c2=O)Cc2c-1nc1cc(F)c(C)c(C3=CCCCC3)c1c2CN [Compound 6b] | 32 | 5 | 15 | 5 | 9 | 9 | 13 | 85 | 14 | 35 | – | – | – | – | – | – | – | – | – | – | IC50 [3, 14]: 23 nM; IC50 ([5]; Homo sapiens, BXPC-3, 96 h, CPT free drugs, CellTiter-Glo after 96 h exposure): 18 nM
2 | CC[C@@]1(O)C(=O)OCc2c1cc1n(c2=O)Cc2c-1nc1cc(F)c(C)c(C=C(C)C)c1c2CN [Compound 6, (S)-11-(aminomethyl)-4-ethyl-8-fluoro-4-hydroxy-9-methyl-10-(2-methylprop-1-en-1-yl)-1,12-dihydro-14H-pyrano[3′,4′:6,7]indolizino[1,2-b]quinoline-3,14(4H)-dione] | – | – | – | – | – | – | – | – | – | – | 17 | 5 | 5 | 1 | 4 | 2 | 4 | 21 | 4 | 7 | IC50 ([2]; 96 h): 3 nM; IC50 ([5]; Homo sapiens, BXPC-3, 96 h): 8 nM
3 | CC[C@@]1(O)C(=O)OCc2c1cc1n(c2=O)Cc2c-1nc1cc3c(cc1c2CNCCOC)OCO3 [Compound 7ag] | – | – | – | – | – | – | – | – | – | – | 6 | 0.9 | 0.6 | 0.3 | 2 | 0.8 | 0.9 | 3 | 1 | 9 | IC50 ([2]; 96 h): 0.3 nM
4 | CC[C@@]1(O)C(=O)OCc2c1cc1n(c2=O)Cc2c-1nc1cc(F)c(C)c(C#N)c1c2CN [Compound 16] | – | – | – | – | – | – | – | – | – | – | 67 | 8 | 3 | 1 | 30 | 3 | 5 | 6 | 7 | 38 | IC50 ([2]; 96 h): 1 nM
5 | CC[C@@]1(O)C(=O)OCc2c1cc1n(c2=O)Cc2c-1nc1cc3c(c(Br)c1c2CN)OCO3 [Compound 5c] | – | – | – | – | – | – | – | – | – | – | 4 | 1 | 5 | 0.3 | 2 | 0.5 | 0.8 | 6 | 1 | 2 | IC50 ([5]; Homo sapiens, BXPC-3, 96 h): 8 nM
6 | CC[C@@]1(O)C(=O)OCc2c1cc1n(c2=O)Cc2c-1nc1cc(F)c(C)c(-c3ccoc3)c1c2CN [Compound 6p] | 8 | 2 | 2 | 0.9 | 3 | 1 | 2 | 5 | 3 | 10 | – | – | – | – | – | – | – | – | – | – | –
7 | CC[C@@]1(O)C(=O)OCc2c1cc1n(c2=O)Cc2c-1nc1cc(F)c(C)c(-c3cccs3)c1c2CN [Compound 6n] | 56 | 7 | 16 | 6 | 30 | 13 | 17 | 47 | 24 | 70 | – | – | – | – | – | – | – | – | – | – | –
8 | CC[C@@]1(O)C(=O)OCc2c1cc1n(c2=O)Cc2c-1nc1cc(F)c(C)c(C3=CCSCC3)c1c2CN [Compound 6m] | 35 | 6 | 7 | 2 | 7 | 5 | 8 | 22 | 12 | 38 | – | – | – | – | – | – | – | – | – | – | –
9 | CC[C@@]1(O)C(=O)OCc2c1cc1n(c2=O)Cc2c-1nc1cc3c(cc1c2CNC(=O)OCc1ccc(NC(=O)[C@H](CCCCN)NC(=O)[C@@H](NC(=O)CCOCCOCCOCCOCCNC(=O)CCN2C(=O)C=CC2=O)C(C)C)cc1)CCO3 [Compound 14, [4-[[(2S)-6-amino-2-[[(2S)-2-[3-[2-[2-[2-[2-[3-(2,5-dioxopyrrol-1-yl)propanoylamino]ethoxy]ethoxy]ethoxy]ethoxy]propanoylamino]-3-methyl-butanoyl]amino]hexanoyl]amino]phenyl]methyl N-[[(5S)-5-ethyl-5-hydroxy-6,10-dioxo-7,20-dioxa-11,24-diazahexacyclo[11.11.0.02,11.04,9.015,23.017,21]tetracosa-1(13),2,4(9),14,16,21,23-heptaen-14-yl]methyl]carbamate;2,2,2-trifluoroacetic acid] | – | – | – | – | – | – | – | – | – | – | – | – | – | – | – | – | – | – | – | – | IC50 [1, 16]: 9 nM; IC50 [2, 16]: 1 nM; IC50 [3, 16]: 4 nM; IC50 (melanoma cells (A2058); [16]): 2 nM; IC50 [5, 16]: 6 nM; IC50 [6, 16]: 22 nM; IC50 [7, 16]: 1 nM; IC50 [8, 16]: 2 nM; IC50 [9, 16]: 3 nM; IC50 [10, 16]: 4 nM; IC50 [11, 16]: 5 nM
10 | CC[C@@]1(O)C(=O)OCc2c1cc1n(c2=O)Cc2c-1nc1cc3c(cc1c2CNC1CCOC1)OCO3 (stereo partly shown) [Compound 7ah] | – | – | – | – | – | – | – | – | – | – | 10 | 0.8 | 0.5 | 0.2 | 0.9 | 0.5 | 0.8 | 2 | 1 | 6 | IC50 ([2]; 96 h): 0.2 nM
11 | CC[C@@]1(O)C(=O)OCc2c1cc1n(c2=O)Cc2c-1nc1cc(F)c(C)c(-c3ccco3)c1c2CN [Compound 6o] | 26 | 3 | 4 | 2 | 14 | 4 | 5 | 9 | 8 | 35 | – | – | – | – | – | – | – | – | – | – | –
12 | CC[C@@]1(O)C(=O)OCc2c1cc1n(c2=O)Cc2c-1nc1cc3c(cc1c2CNC(=O)CO)CCO3 [Compound 15c, (S)-N-((12-ethyl-12-hydroxy-8,11-dioxo-2,3,6,9,11,12-hexahydro-8H-furo [3,2 g]pyrano[3′,4′:6,7]indolizino[1,2-b]quinolin-5-yl)methyl)-2-hydroxyacetamide] | 184 | 3 | 6 | 1 | 18 | 3 | 10 | > 1000 | 22 | 69 | – | – | – | – | – | – | – | – | – | – | IC50 [3, 14]: 22 nM

Source: patent US20230381321A1, “CAMPTOTHECIN CONJUGATES” (priority 2022, published 2023)
